Source: patent US20150119399A1, “BETA-CELL REPLICATION PROMOTING COMPOUNDS AND METHODS OF THEIR USE” (President and Fellows of Harvard College, priority 2012, published 2015)
Entries after “also recorded” stand apart in the source; their conditions may differ. Like-named read-outs stand apart in the source and are kept apart here.

What was measured:
beta-cells = test: beta-cell replication in dissociated rat islet cells (PDX-1/ki-67 imaging); assay type: cell-based; settings: compound for 48 hours, relative to vehicle/DMSO control
Procedure: (§1) Rat islets were isolated and plated as previously described. In brief, rat islets were disassociated using 0.25% trypsin to obtain single cell suspension with occasional clusters of 2-3 cells. These cells were then plated in a 96-well format at a density of 80 k cells/well. The wells were pre-treated with conditioned media produced by the rat bladder carcinoma cell line 804G. After 48-hours, the cells were treated with compound at the indicated concentration or vehicle alone for 48 hours. The cells were then fixed and stained as previously described for the beta-cell marker PDX-1 and the replication marker ki-67. The beta-cell replication rate (the percentage of PDX-1^+ Cells that co-expressed ki-67) was quantified via automated imaging acquisition and analysis using a Cellomic ArrayScan. Each experimental was performed in replicas of four. p-values indicate a 2-tailed T-Test.
(§2) To quantify beta-cell replication rate, cells were identified as beta-cells if the contained both nuclear PDX-1 expression and cytoplasmic insulin staining. Replicating beta-cells were identified by the co-staining for ki-67. Alpha-cell replication was determined by determining the fraction of alpha-cells that co-expressed ki67. An alpha-cell was defined by the presence of cytoplasmic glucagon staining and the absence of nuclear PDX-1 staining. The fraction of dividing alpha-cells was determined by the proportion of alpha cells that co-expressed ki-67.

alpha-cells = test: alpha-cell replication in dissociated rat islet cells (glucagon/ki-67 imaging); assay type: cell-based; settings: compound for 48 hours
Procedure: as §1, §2

recombinant PDE5 = recombinant PDE5 (Homo sapiens, UniProt O76074); settings: in vitro selectivity assay using recombinant PDE
Text: Rows list the PDE inhibitors. Columns list the recombinant human PDE enzymes.

isolated rat islets = test: in vitro islet insulin secretion assay, rat islets; settings: for islet insulin secretion: isolated rat islets
[1] = tested on: primary intestinal crypt culture; test: endogenous GLP-1 secretion in primary intestinal crypt culture; settings: compared to control
wild-type mice [2] = test: glucose tolerance in wild-type mice; assay type: in vivo, mouse
human islets = test: in vitro islet insulin secretion assay, human islets; assay type: cell-based
wild-type mice [3] = test: plasma GLP-1 levels in vivo; settings: 30 minutes after treatment, 0.3 mg/kg Tadalafil, 0.25 mg/kg Dipyridamole, 0.45 mg/kg Vardenafil
diabetic DB mice = test: glucose tolerance in diabetic DB mice; assay type: in vivo, mouse; settings: for glucose tolerance: compound by itself
GLP-1R signaling = test: glucose tolerance via GLP-1R signaling; settings: FIGS. 15A-15C
[4] = tested on: diet-induced obesity (DIO) mice; test: glucose tolerance in diet-induced obesity (DIO) mice; assay type: in vivo; settings: diet-induced obesity (DIO) mouse model of human diabetes
[5] = plasma insulin levels in vivo after intraperitoneal glucose; settings: 30 minutes after treatment and intraperitoneal (IP) delivery of glucose, compared to DMSO
[6] = co-administered with DPP-4 inhibitor Sitagliptin, wild-type mice (FIG. 11), Tadalafil data not shown
[7] = wild-type mice, compound by itself
[8] = wild-type mice, in combination with Exendin-4

SMILES: CN(C(=O)CCCOc1ccc2[nH]c(=O)ccc2c1)C1CCCCC1 [Cilostamide]
- beta-cell replication (percentage of PDX-1+ cells that co-expressed ki-67) (beta-cells): enhanced beta-cell replication
- alpha-cell replication (fraction of alpha-cells that co-expressed ki67) (alpha-cells): enhanced alpha-cell replication

SMILES: OCCN(CCO)c1nc(N2CCCCC2)c2nc(N(CCO)CCO)nc(N3CCCCC3)c2n1 [Dipyridamole, 2,6-bis-(diethanolamino)-4,8-dipiperidino-(5,4-d)-pyrimidine]
- inhibition of PDE5 (inhibitor class) (recombinant PDE5): effective inhibitor (the inhibitor exhibits at least 50% inhibition of enzymatic activity in an in vitro selectivity assay using a recombinant PDE)
- islet insulin secretion (isolated rat islets): significantly enhanced insulin secretion
- islet insulin secretion (isolated rat islets; listed as dipyridamole): enhances insulin secretion
- effect of Exendin-4 on glucose-stimulated insulin secretion (isolated rat islets; rat islets, in combination with Exendin-4): enhances the effect of Exendin-4 on glucose-stimulated insulin secretion
- endogenous GLP-1 secretion [1]: at least about twice
- glucose tolerance / blood glucose levels (wild-type mice [2]; [6]): acts in concert with dipeptidyl peptidase-4 (DPP-4) inhibitor Sitagliptin to improve glucose tolerance; also recorded: act in concert with Sitagliptin to improve glucose tolerance and lower blood glucose levels
- glucose tolerance (wild-type mice [2]; [7]): enhances glucose tolerance
- glucose tolerance (wild-type mice [2]; wild-type mice, compound by itself, listed as dipyridamole): improves glucose tolerance
- glucose tolerance / blood glucose levels (wild-type mice [2]; [8]): enhances glucose tolerance; also recorded: acts additively with Exendin-4 to lower blood glucose levels
- glucose tolerance / blood glucose levels (wild-type mice [2]; wild-type mice, in combination with Exendin-4, listed as dipyridamole): enhances glucose tolerance
- glucose tolerance (wild-type mice [2]; wild-type mice, oral administration): improves glucose tolerance
- beta-cell replication (percentage of PDX-1+ cells that co-expressed ki-67) (beta-cells): enhanced beta-cell replication; also recorded: double replication effect
- beta-cell replication (percentage of PDX-1+ cells that co-expressed ki-67) (beta-cells; listed as Dioyridamole): enhanced beta-cell replication
- islet insulin secretion (human islets): significantly enhanced insulin secretion
- effect of Exendin-4 on glucose-stimulated insulin secretion (human islets; in combination with Exendin-4): enhances the effect of Exendin-4 on glucose-stimulated insulin secretion
- islet insulin secretion (human islets; listed as dipyridamole): enhances insulin secretion
- plasma GLP-1 levels (wild-type mice [3]): significantly increase plasma GLP-1 levels
- glucose tolerance (diabetic DB mice): enhances glucose tolerance
- glucose tolerance (diabetic DB mice; listed as dipyridamole): improves glucose tolerance
- glucose tolerance / blood glucose levels (diabetic DB mice; in combination with Exendin-4): enhances glucose tolerance; also recorded: acts additively with Exendin-4 to lower blood glucose levels
- glucose tolerance / blood glucose levels (diabetic DB mice; in combination with Exendin-4, listed as dipyridamole): enhances glucose tolerance
- glucose tolerance via GLP-1R signaling (GLP-1R signaling): improve glucose tolerance via GLP-1R signaling
- alpha-cell replication (fraction of alpha-cells that co-expressed ki67) (alpha-cells): does not; also recorded: did not

SMILES: CN1CC(=O)N2[C@H](c3ccc4c(c3)OCO4)c3[nH]c4ccccc4c3C[C@@H]2C1=O [Tadalafil, (6R-trans)-6-(1,3-benzodioxol-5-yl)-2,3,6,7,12,12a-hexahydro-2-methyl-pyrazino[1′,2′:1,6]pyrido[3,4-b]indole-1,4-dione]
- islet insulin secretion (isolated rat islets): do not enhance islet insulin secretion; also recorded: Neither Tadalafil (FIG. 4A) nor Vardenafil (FIG. 4B) significantly enhanced insulin secretion
- glucose tolerance / blood glucose levels (wild-type mice [2]; [6]): act in concert with Sitagliptin to improve glucose tolerance and lower blood glucose levels
- glucose tolerance (wild-type mice [2]; [7]): improves glucose tolerance
- glucose tolerance / blood glucose levels (wild-type mice [2]; [8]): acts additively with Exendin-4 to lower glucose levels
- beta-cell replication (percentage of PDX-1+ cells that co-expressed ki-67) (beta-cells): did not increase beta-cell replication
- plasma GLP-1 levels (wild-type mice [3]): significantly increase plasma GLP-1 levels
- glucose tolerance via GLP-1R signaling (GLP-1R signaling): improve glucose tolerance via GLP-1R signaling
- glucose tolerance [4]: improves glucose tolerance
- plasma insulin levels [5]: increased plasma insulin levels; also recorded: significantly increase plasma insulin levels

SMILES: COc1cc2c(cc1OC)-c1c/c(=N\c3c(C)cc(C)cc3C)n(C)c(=O)n1CC2 [Trequinsin]
- beta-cell replication (percentage of PDX-1+ cells that co-expressed ki-67) (beta-cells): enhanced beta-cell replication
- alpha-cell replication (fraction of alpha-cells that co-expressed ki67) (alpha-cells): enhanced alpha-cell replication

SMILES: COc1cc(-c2ccc(=O)[nH]n2)ccc1OC(F)F [Zardaverine, 6-[4-(Difluoromethoxy)-3-methoxyphenyl]-3(2H)-pyridazinone]
- beta-cell replication (percentage of PDX-1+ cells that co-expressed ki-67) (beta-cells): enhanced beta-cell replication
- alpha-cell replication (fraction of alpha-cells that co-expressed ki67) (alpha-cells): enhanced alpha-cell replication
